Assay results taken from PubChem BioAssay (NCI).
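All cell lines were grown in 96-well plates and treated with compound for 48 hours. TGI: total growth inhibition.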

How the values were obtained:
Assay in all cases: DTP human tumour cell line panel, 48 h
COLO 205 colon = system: COLO 205 colon
HCT-116 colon = system: HCT-116 colon
SW-620 colon = system: SW-620 colon
MCF7 breast = system: MCF7 breast
EKVX NSCLC = system: EKVX NSCLC
M14 melanoma = system: M14 melanoma
U251 CNS = system: U251 CNS
HT29 colon = system: HT29 colon
PC-3 prostate = system: PC-3 prostate
KM12 colon = system: KM12 colon
MDA-MB-435 = system: MDA-MB-435
HL-60(TB) leukemia = system: HL-60(TB) leukemia
IGROV1 ovarian = system: IGROV1 ovarian
NCI-H23 lung = system: NCI-H23 lung
K-562 leukemia = system: K-562 leukemia
NCI-H460 lung = system: NCI-H460 lung
RXF 393 renal = system: RXF 393 renal
CAKI-1 renal = system: CAKI-1 renal
SR leukemia = system: SR leukemia
OVCAR-3 ovarian = system: OVCAR-3 ovarian
HCT-15 colon = system: HCT-15 colon
SK-MEL-28 melanoma = system: SK-MEL-28 melanoma
SK-MEL-5 melanoma = system: SK-MEL-5 melanoma
CCRF-CEM leukemia = system: CCRF-CEM leukemia
OVCAR-5 ovarian = system: OVCAR-5 ovarian
HCC-2998 colon = system: HCC-2998 colon
MOLT-4 leukemia = system: MOLT-4 leukemia
HOP-62 NSCLC = system: HOP-62 NSCLC
SN12C renal = system: SN12C renal
ACHN renal = system: ACHN renal
NCI/ADR-RES ovarian = system: NCI/ADR-RES ovarian
SF-295 CNS = system: SF-295 CNS
OVCAR-8 ovarian = system: OVCAR-8 ovarian
HS 578T breast = system: HS 578T breast
MALME-3M melanoma = system: MALME-3M melanoma
MDA-N = system: MDA-N
TK-10 renal = system: TK-10 renal
786-0 renal = system: 786-0 renal
A549 NSCLC = system: A549 NSCLC
RPMI-8226 leukemia = system: RPMI-8226 leukemia
NCI-H522 lung = system: NCI-H522 lung
SF-539 CNS = system: SF-539 CNS
SF-268 CNS = system: SF-268 CNS
MDA-MB-231 breast = system: MDA-MB-231 breast
UO-31 renal = system: UO-31 renal
SNB-19 CNS = system: SNB-19 CNS
LOX IMVI melanoma = system: LOX IMVI melanoma
UACC-257 melanoma = system: UACC-257 melanoma
DU-145 prostate = system: DU-145 prostate
NCI-H226 lung = system: NCI-H226 lung
SNB-75 CNS = system: SNB-75 CNS
SK-MEL-2 melanoma = system: SK-MEL-2 melanoma
UACC-62 melanoma = system: UACC-62 melanoma
A498 renal = system: A498 renal
OVCAR-4 ovarian = system: OVCAR-4 ovarian
SK-OV-3 ovarian = system: SK-OV-3 ovarian
HOP-92 NSCLC = system: HOP-92 NSCLC

CCOP(=O)(OCC)C(c1ccc(F)cc1)N(C(=O)NC(F)(F)F)c1ccc(F)cc1 (stereo unspecified)
TGI (COLO 205 colon): > 100 µM
TGI (HCT-116 colon): > 100 µM
TGI (SW-620 colon): > 100 µM
TGI (MCF7 breast): > 100 µM
TGI (EKVX NSCLC): > 100 µM
TGI (M14 melanoma): > 100 µM
TGI (U251 CNS): > 100 µM
TGI (HT29 colon): > 100 µM
TGI (PC-3 prostate): > 100 µM
TGI (KM12 colon): > 100 µM
TGI (MDA-MB-435): > 100 µM
TGI (HL-60(TB) leukemia): > 100 µM
TGI (IGROV1 ovarian): > 100 µM
TGI (NCI-H23 lung): > 100 µM
TGI (K-562 leukemia): > 100 µM
TGI (NCI-H460 lung): > 100 µM
TGI (RXF 393 renal): > 100 µM
TGI (CAKI-1 renal): > 100 µM
TGI (SR leukemia): > 100 µM
TGI (OVCAR-3 ovarian): > 100 µM
TGI (HCT-15 colon): > 100 µM
TGI (SK-MEL-28 melanoma): > 100 µM
TGI (SK-MEL-5 melanoma): > 100 µM
TGI (CCRF-CEM leukemia): > 100 µM
TGI (OVCAR-5 ovarian): > 100 µM
TGI (HCC-2998 colon): > 100 µM
TGI (MOLT-4 leukemia): > 100 µM
TGI (HOP-62 NSCLC): > 100 µM
TGI (SN12C renal): > 100 µM
TGI (ACHN renal): > 100 µM
TGI (NCI/ADR-RES ovarian): > 100 µM
TGI (SF-295 CNS): > 100 µM
TGI (OVCAR-8 ovarian): > 100 µM
TGI (HS 578T breast): > 100 µM
TGI (MALME-3M melanoma): > 100 µM
TGI (MDA-N): > 100 µM
TGI (TK-10 renal): > 100 µM
TGI (786-0 renal): > 100 µM
TGI (A549 NSCLC): > 100 µM
TGI (RPMI-8226 leukemia): > 100 µM
TGI (NCI-H522 lung): > 100 µM
TGI (SF-539 CNS): > 100 µM
TGI (SF-268 CNS): > 100 µM
TGI (MDA-MB-231 breast): > 100 µM
TGI (UO-31 renal): > 100 µM
TGI (SNB-19 CNS): > 100 µM
TGI (LOX IMVI melanoma): > 100 µM
TGI (UACC-257 melanoma): > 100 µM
TGI (DU-145 prostate): > 100 µM
TGI (NCI-H226 lung): > 100 µM
TGI (SNB-75 CNS): > 100 µM

CCC(C)C(Nc1c2ccccc2nc2c(C(=O)NCCN(C)C)cccc12)C(=O)O (stereo unspecified)
TGI (COLO 205 colon): > 100 µM
TGI (HCT-116 colon): > 100 µM
TGI (SW-620 colon): > 100 µM
TGI (MCF7 breast): > 100 µM
TGI (EKVX NSCLC): 77 µM
TGI (M14 melanoma): 44.1 µM
TGI (SK-MEL-2 melanoma): 46.7 µM
TGI (U251 CNS): > 100 µM
TGI (HT29 colon): 17.1 µM
TGI (PC-3 prostate): > 100 µM
TGI (KM12 colon): > 100 µM
TGI (MDA-MB-435): 41.9 µM
TGI (IGROV1 ovarian): > 100 µM
TGI (NCI-H23 lung): 79.3 µM
TGI (K-562 leukemia): > 100 µM
TGI (UACC-62 melanoma): 47.4 µM
TGI (SR leukemia): > 100 µM
TGI (OVCAR-3 ovarian): > 100 µM
TGI (HCT-15 colon): > 100 µM
TGI (SK-MEL-28 melanoma): 67.1 µM
TGI (A498 renal): 42.4 µM
TGI (SK-MEL-5 melanoma): > 100 µM
TGI (CCRF-CEM leukemia): > 100 µM
TGI (OVCAR-5 ovarian): > 100 µM
TGI (MOLT-4 leukemia): > 100 µM
TGI (HOP-62 NSCLC): > 100 µM
TGI (SN12C renal): > 100 µM
TGI (OVCAR-4 ovarian): 25.8 µM
TGI (ACHN renal): > 100 µM
TGI (NCI/ADR-RES ovarian): 77.6 µM
TGI (SF-295 CNS): 40.9 µM
TGI (OVCAR-8 ovarian): > 100 µM
TGI (HS 578T breast): 51.6 µM
TGI (MALME-3M melanoma): 35.1 µM
TGI (MDA-N): 86.4 µM
TGI (TK-10 renal): > 100 µM
TGI (786-0 renal): > 100 µM
TGI (A549 NSCLC): > 100 µM
TGI (RPMI-8226 leukemia): > 100 µM
TGI (NCI-H522 lung): 56.8 µM
TGI (SK-OV-3 ovarian): > 100 µM
TGI (SF-268 CNS): 39.4 µM
TGI (MDA-MB-231 breast): 65.5 µM
TGI (HOP-92 NSCLC): 61.1 µM
TGI (UO-31 renal): 81.5 µM
TGI (SNB-19 CNS): > 100 µM
TGI (LOX IMVI melanoma): > 100 µM
TGI (DU-145 prostate): > 100 µM
TGI (NCI-H226 lung): 32.1 µM
TGI (SNB-75 CNS): 61.8 µM
